ChEMBL document CHEMBL4619786, “Discovery of Novel Resorcinol Dibenzyl Ethers Targeting the Programmed Cell Death-1/Programmed Cell Death-Ligand 1 Interaction as Potential Anticancer Agents” (J Med Chem, 2020)

Experiments:
[1] = target: T1, Programmed cell death protein 1/Programmed cell death 1 ligand 1 (Homo sapiens) (UniProt Q15116+Q9NZQ7); assay: (§1) Inhibition of human PD1/PDL1 protein-protein interaction in human PBMC-derived CD3-positive T cells co-cultured with human Hep3B cells expressing human PDL1/OS-8 assessed as increase in IFNgamma secretion measured after 72 hrs by ELISA
[2] = target: Programmed cell death protein 1/Programmed cell death 1 ligand 1 (Homo sapiens, UniProt Q9NZQ7); assay: as §1
Chain of Programmed cell death protein 1/Programmed cell death 1 ligand 1 (Q15116 whole entry): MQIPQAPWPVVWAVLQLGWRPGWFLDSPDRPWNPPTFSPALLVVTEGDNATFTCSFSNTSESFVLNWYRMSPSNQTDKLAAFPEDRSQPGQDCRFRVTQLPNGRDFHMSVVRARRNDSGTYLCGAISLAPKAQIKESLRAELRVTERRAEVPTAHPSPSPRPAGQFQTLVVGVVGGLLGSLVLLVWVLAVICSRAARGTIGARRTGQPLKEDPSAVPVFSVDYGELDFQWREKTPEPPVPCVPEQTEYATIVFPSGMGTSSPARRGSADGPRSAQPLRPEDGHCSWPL
Chain of Programmed cell death protein 1/Programmed cell death 1 ligand 1 (Q9NZQ7 whole entry): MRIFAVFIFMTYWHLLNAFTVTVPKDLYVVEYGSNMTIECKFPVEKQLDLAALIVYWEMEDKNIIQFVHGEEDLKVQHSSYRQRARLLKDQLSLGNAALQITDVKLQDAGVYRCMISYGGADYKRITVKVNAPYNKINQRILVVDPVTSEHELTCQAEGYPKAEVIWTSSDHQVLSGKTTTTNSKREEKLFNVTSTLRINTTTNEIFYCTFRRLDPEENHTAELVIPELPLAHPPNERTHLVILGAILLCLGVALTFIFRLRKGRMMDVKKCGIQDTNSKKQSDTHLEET

[3] = target: T1, Programmed cell death protein 1/Programmed cell death 1 ligand 1 (Homo sapiens); assay: Ratio of EC50 for inhibition of human PD1/PDL1 protein-protein interaction in human PBMC-derived CD3-positive T cells co-cultured with human Hep3B cells expressing human PDL1/OS-8 assessed as increase in IFNgamma secretion to IC50 for inhibition of human PD1/PDL1 protein-protein interaction
[4] = Cmax in Sprague-Dawley rat at 1 mg/kg, iv by LC-MS/MS analysis; assay type: ADME, organism-based; set-up: dose 1 mg/kg, route intravenous; conditions: in vivo
[5] = AUC (0 to t) in Sprague-Dawley rat at 1 mg/kg, iv by LC-MS/MS analysis; assay type: ADME, organism-based; conditions: in vivo
[6] = Cmax in Sprague-Dawley rat at 10 mg/kg, po by LC-MS/MS analysis; assay type: ADME, organism-based; set-up: dose 10 mg/kg, route oral; conditions: in vivo
[7] = AUC (0 to t) in Sprague-Dawley rat at 10 mg/kg, po by LC-MS/MS analysis; assay type: ADME, organism-based; conditions: in vivo
[8] = Oral bioavailability in Sprague-Dawley rat at 10 mg/kg by LC-MS/MS analysis; assay type: ADME, organism-based; conditions: in vivo
[9] = Toxicity in Sprague-Dawley rat at 1 mg/kg, iv; assay type: organism-based; conditions: in vivo
B16-F10 [10] = assay: Antitumor activity against mouse B16/F10 cells implanted in BALB/c mouse assessed as tumor weight at 50 mg/kg, ig administered once daily via gavage for 15 days measured 24 hrs post-last dose (reference value: 0.84 +/- 0.32 g); assay type: functional
B16-F10 [11] = assay: Antitumor activity against mouse B16/F10 cells implanted in BALB/c mouse assessed as tumor weight at 100 mg/kg, ig administered once daily via gavage for 15 days measured 24 hrs post-last dose (reference value: 0.84 +/- 0.32 g); assay type: functional
B16-F10 [12] = assay: Antitumor activity against mouse B16/F10 cells implanted in BALB/c mouse assessed as tumor growth inhibition at 100 mg/kg, ig administered once daily via gavage for 15 days relative to control; assay type: functional; conditions: B16-F10, po, 360 h, read-out: TGI
[13] = Toxicity in mouse B16/F10 cells implanted […] mouse assessed as change in spleen weight at 25 to 100 mg/kg, ig administered once daily via gavage for 15 days measured 24 hrs post-last dose; assay type: organism-based; conditions: in vivo, po
[14] = Toxicity in mouse B16/F10 cells implanted […] mouse assessed as histological changes in kidney at 25 to 100 mg/kg, ig administered once daily via gavage for 15 days measured 24 hrs post-last dose by H and E staining based microscopic analysis; assay type: organism-based; conditions: in vivo, po
Mus musculus [15] = assay: (§2) Immunostimulatory activity in mouse B16/F10 cells implanted […] mouse assessed as increase in activation of tumor-microenvironment mediated helper T cells in tumor by measuring CD3-positive/CD4-positive cell population at 100 mg/kg, ig administered once daily via gavage for 15 days measured 24 hrs post-last dose by immunostaining based flow cytometry (reference value: 6.15%); assay type: functional
Mus musculus [16] = assay: as §2, with “activated cytotoxic” for “helper”, “melanoma” for “CD3-positive/CD4-positive”, “72.8%)” for “6.15%)”; assay type: functional
Mus musculus [17] = assay: as §2, with “activated cytotoxic” for “helper”, “CD8-positive” for “CD3-positive/CD4-positive”, “50” for “100”, “2.2%)” for “6.15%)”; assay type: functional
Mus musculus [18] = assay: as §2, with “CD4-positive” for “CD3-positive/CD4-positive”, “25” for “100”, “4.95%)” for “6.15%)”; assay type: functional
Mus musculus [19] = assay: as §2, with “25” for “100”; assay type: functional
Mus musculus [20] = assay: as §2, with “melanoma” for “CD3-positive/CD4-positive”, “25” for “100”, “70%)” for “6.15%)”; assay type: functional
Mus musculus [21] = assay: as §2, with “activated cytotoxic” for “helper”, “CD3-positive/CD8-positive” for “CD3-positive/CD4-positive”, “25” for “100”, “4.18%)” for “6.15%)”; assay type: functional
Mus musculus [22] = assay: as §2, with “activated cytotoxic” for “helper”, “melanoma” for “CD3-positive/CD4-positive”, “25” for “100”, “72.8%)” for “6.15%)”; assay type: functional
Mus musculus [23] = assay: as §2, with “activated cytotoxic” for “helper”, “CD3-positive” for “CD3-positive/CD4-positive”, “25” for “100”, “20.8%)” for “6.15%)”; assay type: functional
Mus musculus [24] = assay: (§3) Effect on activated cytotoxic T cell population in mouse B16/F10 cells implanted […] mouse assessed as CD3-positive cell population in spleen at 100 mg/kg, ig administered once daily via gavage for 15 days measured 24 hrs post-last dose by immunostaining based flow cytometry (reference value: 27.5 %); assay type: organism-based; conditions: in vivo, po
Mus musculus [25] = assay: Effect on spleen helper T cell population in mouse B16/F10 cells implanted […] mouse assessed as CD4-positive cell population at 50 mg/kg, ig administered once daily via gavage for 15 days measured 24 hrs post-last dose by immunostaining based flow cytometry (reference value: 1.47 %); assay type: ADME, organism-based; conditions: in vivo, po
Mus musculus [26] = assay: as §3, with “CD3-positive/CD8-positive” for “CD3-positive”, “50” for “100”, “14.2” for “27.5”; assay type: organism-based; conditions: in vivo, po

Cmax [4]: 1750 ng/mL | AUC(0-t) [5]: 967 ng·h/mL | Cmax [6]: 69.5 ng/mL | AUC(0-t) [7]: 410 ng·h/mL | bioavailability [8]: 5% | Activity (Mus musculus [25]): 1.18%
Structure (SMILES): Cc1c(COc2cc(OCc3cccc(C#N)c3)c(CNC(C)(C)C(=O)O)cc2Cl)cccc1-c1ccccc1
inhibition [1]: Dose-dependent effect | EC50 [2]: 3 µM | Ratio [3]: 240 | Activity [9]: Non-Toxic | Activity (B16-F10 [10]): 0.21 g | Activity (B16-F10 [11]): 0.16 g | inhibition in vivo at 100 mg/kg (B16-F10 [12]): 80.9% | Activity [13]: Non-Toxic | Activity [14]: Non-Toxic | Activity (Mus musculus [15]): 13.8% | Activity (Mus musculus [16]): 44.8% | Activity (Mus musculus [17]): 5.76% | Activity (Mus musculus [18]): 4.36% | Activity (Mus musculus [19]): 15.4% | Activity (Mus musculus [20]): 65.2% | Activity (Mus musculus [21]): 12.4% | Activity (Mus musculus [22]): 59.4% | Activity (Mus musculus [23]): 18% | Activity (Mus musculus [24]): 25.4% | Activity (Mus musculus [26]): 15.5%
